Reference: article PMC3867937 (MedChemComm, 2013)
In brackets after ≈: the same amount, converted by molar mass.

Key:
E. coli DNA gyrase = E. coli DNA gyrase (Escherichia coli, UniProt P0AES4+P0AES6); experiment: E. coli DNA gyrase supercoiling assay; assay type: biochemical; details: for E. coli DNA gyrase IC50: supercoiling assay, relaxed plasmid DNA
Bacillus subtilis [1] = experiment: Antibacterial MIC testing, microdilution, B. subtilis; assay type: cell-based; details: for B. subtilis MIC: cation-adjusted Mueller-Hinton Broth, 24 h, 37°C; for MIC: Bacillus subtilis, read-out: MIC antibacterial activity
[2] = system: membrane permeable strain (BAS3023) of Escherichia coli; experiment: Antibacterial MIC testing, microdilution, E. coli; assay type: cell-based; details: 24 h; for E. coli MIC: membrane permeable strain of E. coli, cation-adjusted Mueller-Hinton Broth, 37°C
E. coli topoisomerase I = E. coli topoisomerase I (Escherichia coli, UniProt P06612); experiment: E. coli topoisomerase I relaxation inhibition assay with supercoiled plasmid DNA; assay type: biochemical; details: relaxation of supercoiled pBAD/Thio plasmid, 30 min at 37°C
E. coli topoisomerase I, sequence (P06612 whole entry): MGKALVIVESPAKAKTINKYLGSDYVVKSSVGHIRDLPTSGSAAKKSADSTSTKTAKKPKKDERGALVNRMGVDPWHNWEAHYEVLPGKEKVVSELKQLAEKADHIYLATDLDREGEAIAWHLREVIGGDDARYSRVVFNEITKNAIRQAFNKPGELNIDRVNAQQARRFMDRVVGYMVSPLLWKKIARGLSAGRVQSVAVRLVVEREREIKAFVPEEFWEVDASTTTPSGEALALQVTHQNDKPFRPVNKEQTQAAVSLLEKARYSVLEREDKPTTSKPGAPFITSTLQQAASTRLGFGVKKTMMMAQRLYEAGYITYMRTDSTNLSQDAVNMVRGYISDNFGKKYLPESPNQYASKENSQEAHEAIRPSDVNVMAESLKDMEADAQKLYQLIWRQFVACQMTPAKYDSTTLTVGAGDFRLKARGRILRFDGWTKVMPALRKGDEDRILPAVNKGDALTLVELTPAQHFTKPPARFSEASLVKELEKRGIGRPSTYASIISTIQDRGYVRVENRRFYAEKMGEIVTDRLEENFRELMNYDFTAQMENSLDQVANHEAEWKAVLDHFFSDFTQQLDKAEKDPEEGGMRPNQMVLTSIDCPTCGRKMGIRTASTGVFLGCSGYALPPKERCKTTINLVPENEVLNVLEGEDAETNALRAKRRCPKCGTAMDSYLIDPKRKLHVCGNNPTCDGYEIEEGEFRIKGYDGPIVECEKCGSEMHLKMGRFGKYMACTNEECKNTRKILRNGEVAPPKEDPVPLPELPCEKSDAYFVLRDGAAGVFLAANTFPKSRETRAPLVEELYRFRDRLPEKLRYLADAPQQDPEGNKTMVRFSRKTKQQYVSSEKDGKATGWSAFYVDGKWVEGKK

Bacillus subtilis [3] = details: cited from earlier work
[4] = system: membrane permeable strain (BAS3023) of Escherichia coli; details: cited from earlier work
S. rolfsii = details: cited from earlier work

E. coli DNA gyrase, sequence (P0AES4 whole entry, one chain of several): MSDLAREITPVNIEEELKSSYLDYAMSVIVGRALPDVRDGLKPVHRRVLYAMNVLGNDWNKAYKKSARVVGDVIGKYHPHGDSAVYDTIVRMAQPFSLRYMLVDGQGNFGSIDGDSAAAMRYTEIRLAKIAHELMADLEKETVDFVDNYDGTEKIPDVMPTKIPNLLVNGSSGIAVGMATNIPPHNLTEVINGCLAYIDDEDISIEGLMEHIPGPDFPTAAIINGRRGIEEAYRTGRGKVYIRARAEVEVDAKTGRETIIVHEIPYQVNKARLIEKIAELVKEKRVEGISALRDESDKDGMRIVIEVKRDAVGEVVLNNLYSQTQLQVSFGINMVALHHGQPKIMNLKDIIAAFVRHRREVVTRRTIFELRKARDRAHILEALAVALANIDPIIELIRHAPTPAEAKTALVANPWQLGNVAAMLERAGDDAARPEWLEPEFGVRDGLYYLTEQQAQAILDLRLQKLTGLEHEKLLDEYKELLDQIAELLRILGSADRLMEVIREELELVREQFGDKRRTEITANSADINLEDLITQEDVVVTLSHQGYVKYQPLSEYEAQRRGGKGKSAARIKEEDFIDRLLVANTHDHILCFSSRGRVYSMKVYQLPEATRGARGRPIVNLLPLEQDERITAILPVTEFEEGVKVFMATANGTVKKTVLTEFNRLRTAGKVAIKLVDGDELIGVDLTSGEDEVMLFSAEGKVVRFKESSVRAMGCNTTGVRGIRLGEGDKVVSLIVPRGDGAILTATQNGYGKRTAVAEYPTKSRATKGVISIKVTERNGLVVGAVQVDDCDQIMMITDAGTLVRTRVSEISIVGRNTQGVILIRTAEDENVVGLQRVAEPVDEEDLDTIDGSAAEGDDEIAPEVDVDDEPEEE

SMILES | IC50 (E. coli DNA gyrase) [µM] | E. coli DNA gyrase IC50 (E. coli DNA gyrase) | E. coli MIC [2] | E. coli Topo I inhibition IC50 (E. coli topoisomerase I) | other results
CCCCCc1cc(O)cc(O)c1C(=O)O [Compound 4, 2,4-dihydroxy-6-pentylbenzoic acid] | > 1000 | no inhibitory activity | no inhibitory activity | – | B. subtilis MIC (Bacillus subtilis [1]): no inhibitory activity
CCCCCc1cc(OC(=O)c2c(CCCCC)cc(OCc3ccccc3)cc2OCc2ccccc2)cc(O)c1C(=O)OCc1ccccc1 [Compound 6, benzyl 4-((2,4-bis(benzyloxy)-6-pentylbenzoyl)oxy)-2-hydroxy-6-pentylbenzoate] | > 1000 | inactive | – | inactive | –
CCCCCc1cc(O)cc(O)c1C(=O)Oc1cc(CCCCC)c2c(c1)OC(C)(C)OC2=O [Compound 14] | > 1000 | inactive | – | inactive | –
O=C(O)c1ccc(OC(=O)c2ccc(O)cc2O)cc1O [Compound 11c] | > 1000 | complete loss | complete loss | complete loss | B. subtilis MIC (Bacillus subtilis [1]): complete loss
CCCCCc1cc(OC(=O)c2c(O)cc(O)cc2CCCCC)cc(O)c1C(=O)O [Anziaic acid (synthetic sample), anziaic acid] | – | – | 100 µM | – | MIC against Bacillus subtilis (Bacillus subtilis [3]): 6 µg/mL (≈ 13.9 µM); MIC against membrane permeable strain (BAS3023) of Escherichia coli [4]: 12 µg/mL
COC(=O)c1c(C)cc(OC(=O)c2c(C)cc(O)c(C=O)c2O)c(C)c1O [atranorin] | – | – | – | – | ED50 antifungal activity against S. rolfsii (S. rolfsii): 39.70 µg/mL (≈ 106 µM)
Nc1ccc(/N=N/c2ccccc2)c(N)c1 [Compound 18] | – | – | – | – | MIC (Bacillus subtilis [1]): 200 to 400 µM (≈ 42.5 to 84.9 µg/mL); MIC ([2]; Escherichia coli, read-out: E. coli MIC): 200 to 400 µM (≈ 42.5 to 84.9 µg/mL)
O=C(OCc1ccccc1)c1ccc(OC(=O)c2ccc(OCc3ccccc3)cc2OCc2ccccc2)cc1O [Compound 10c] | > 1000 | – | – | – | –
O=C(O)c1cc(/N=N/c2cccc([N+](=O)[O-])c2)ccc1O [Compound 19] | – | – | – | – | MIC (Bacillus subtilis [1]): 200 to 400 µM (≈ 57.4 to 115 µg/mL)
